Holding throughout (format): physicochemical
Data set [1] is described as follows: Solid storage stability test. Conditions: for chemical and physical stability after storage: solid/25° C./60% RH/open/1 week and/or solid/60° C./closed container/1 week. How it is done: Each amorphous salt solid was weighed (two 2 mg samples were weighed for purity testing after solid storage stability study, and one 10 mg sample was weighed for XRPD testing after solid storage stability study) and placed in a glass vial. In a 25° C./60% RH solid storage stability test, the amorphous salt solid was placed in a 25° C./60% RH constant temperature and humidity chamber, and placed in the dark for 1 week (i.e. “solid/25° C./60% RH/open/1 week”), and in a 60° C. solid storage stability test, the amorphous salt solid was sealed in an oven at 60° C. and heated for 1 week in the dark (i.e. “solid/60° C./closed container/1 week”). Then the sample was taken out for purity testing, crystal form detection and appearance observation, respectively.

A short description of data set [2]: Solid solubility test (2 h and 24 h). The conditions noted are these: Test ES4: FaSSIF-V1 (pH 6.5); for Solubility measured at 2 h: 37° C., based on free base. How it is done: 5 samples were weighed for each amorphous salt solid (equivalent to 20 mg of free base), and 10 mL of the following solvents were respectively added: 0.1N HCl solution (pH 1.0), 50 mM phosphate buffer (pH 4.5), FeSSIF-V1 (pH 5.0), FaSSIF-V1 (pH 6.5) and SGF (pH 2.0), and stirred at 37° C. for 2 h. The suspension was then centrifuged at 37° C., the supernatant was measured for solubility by HPLC, and the solid fraction was measured for XRPD. The target solubility was at least 2 mg (based on free base)/mL.

A further data set can be described thus: Dynamic solubility test. Conditions: for dynamic solubility: room temperature, feeding concentration 10 mg/mL. How it is done: Determination method: According to a feeding concentration of 10 mg/mL, about 50 mg of the sample were weighed and added to 5 mL of the corresponding medium, and the sample was dissolved by rotating at […] at room temperature.

The mark [3] stands for this setting: Test BS1: solid/25° C./60% RH/open/1 week.
The mark [4] stands for this setting: Test BS2: solid/60° C./closed container/1 week.

A value given as a limit tells only on which side of the number the result lay.

For the molecule `C=CC(=O)Nc1cc(Nc2ncnc(-c3cn(C)c4ccccc34)n2)c(OC)cc1N(C)CCN(C)C` [Example 5], the “Morphology (XRPD crystallinity)” value in data set [1] (setting [3]) is “low crystallinity (FIG”; in data set [1] (setting [4]) it was “amorphous (FIG. 94),”. The “Morphology (agglomeration, appearance)” value in data set [1] (setting [3]) is given as 94), agglomeration; in data set [1] (setting [4]) it was “partial agglomeration”. Besides, the “chemical and physical stability after storage” value (“chemical and physical stability” for short) in data set [1] (listed as 2 eq. mesylate salt) and in data set [1] (listed as amorphous 2 eq. mesylate salt) was “physically unstable” each time. Moreover, the “physical and chemical stability (in words)” value is “transformed from amorphous to a low crystallinity and showed a certain hygroscopicity (agglomeration)” in data set [1] (solid/25° C./60% RH/open/1 week, listed as amorphous 2 eq. mesylate salt); “a certain hygroscopicity (partial agglomeration)” in data set [1] (solid/60° C./closed container/1 week, listed as amorphous 2 eq. mesylate salt). Besides, in data set [2], the “pH measured at 2 h” value is recorded as “(6.2)”.
In the case of `C=CC(=O)Nc1cc(Nc2ncnc(-c3cn(C)c4ccccc34)n2)c(OC)cc1N(C)CCN(C)C` [Example 6], the “Morphology (XRPD crystallinity)” value in data set [1] (setting [3]) and in data set [1] (setting [4]) was “amorphous (FIG. 96),” each time. Also, the “chemical and physical stability” value in data set [1] (listed as 1 eq. besylate salt) and in data set [1] (listed as amorphous 1 eq. besylate salt) was “chemically unstable” throughout. Besides, the “physical and chemical stability (in words)” value in data set [1] (solid/60° C./closed container/1 week, listed as amorphous 1 eq. besylate salt) was “good physical and chemical stability”.
`C=CC(=O)Nc1cc(Nc2ncnc(-c3cn(C)c4ccccc34)n2)c(OC)cc1N(C)CCN(C)C` [Example 7]: the Color entry in data set [1] (setting [3]) is given as “slight color change”. Further, in data set [1] (setting [4]), the Color entry is reported as “no color change”; the “Morphology (XRPD crystallinity)” value is on record as “amorphous (FIG. 98),”; the “Morphology (agglomeration, appearance)” value is “no agglomeration”. Moreover, in data set [1] (listed as 2 eq. besylate salt), the “chemical and physical stability” value is listed as “physically unstable”. For the same molecule, the “chemical and physical stability” value in data set [1] (listed as amorphous 2 eq. besylate salt) is recorded as “physically unstable”. In data set [1] (solid/25° C./60% RH/open/1 week, listed as amorphous 2 eq. besylate salt), the “physical and chemical stability (in words)” value is “slight color change and showed significant hygroscopicity (caking and fusion to a glassy state)”. Besides, the “physical and chemical stability (in words)” value in data set [1] (solid/60° C./closed container/1 week, listed as amorphous 2 eq. besylate salt) was “good physical and chemical stability”. In data set [2], the “pH measured at 2 h” value was “(6.1)” and the “Solubility measured at 2 h” value was more than 2000 µg/mL.
`C=CC(=O)Nc1cc(Nc2ncnc(-c3cn(C)c4ccccc34)n2)c(OC)cc1N(C)CCN(C)C` [Example 8]: the Color result in data set [1] (setting [3]) is listed as “no color change”. In data set [1] (setting [4]), the Color entry is reported as “no color change”; the “Morphology (XRPD crystallinity)” value is recorded as “amorphous (FIG. 100),”; the “Morphology (agglomeration, appearance)” value is recorded as “no agglomeration”. In addition, the “chemical and physical stability” value in data set [1] (listed as 1 eq. esylate salt) is reported as “physically unstable”. Moreover, the “chemical and physical stability” value in data set [1] (listed as amorphous 1 eq. esylate salt) is given as “physically unstable”. In data set [1] (solid/25° C./60% RH/open/1 week, listed as amorphous 1 eq. esylate salt), the “physical and chemical stability (in words)” value was “significant hygroscopicity (caking and fusion to a glassy state)”. Further, in data set [1] (solid/60° C./closed container/1 week, listed as amorphous 1 eq. esylate salt), the “physical and chemical stability (in words)” value was “good physical and chemical stability”. Also, in data set [2], the “pH measured at 2 h” value is “(6.4)” and the “Solubility measured at 2 h” value was more than 2000 µg/mL.
Usually solubility stands for the dissolved amount per volume that the medium holds. Turning to `C=CC(=O)Nc1cc(Nc2ncnc(-c3cn(C)c4ccccc34)n2)c(OC)cc1N(C)CCN(C)C` [Example 22], the dynamic solubility was 6600 µg/mL in the data set “Dynamic solubility test” (FaSSIF, 0.5 h, listed as crystaline form II-A of mesylate salt); 6200 µg/mL in the data set “Dynamic solubility test” (FaSSIF, 1 h, listed as crystaline form II-A of mesylate salt); 7000 µg/mL in the data set “Dynamic solubility test” (FaSSIF, 2 h, listed as crystaline form II-A of mesylate salt); 6900 µg/mL in the data set “Dynamic solubility test” (FaSSIF, 4 h, listed as crystaline form II-A of mesylate salt); 9900 µg/mL in “Dynamic solubility test” (FaSSIF, 24 h, listed as crystaline form II-A of mesylate salt); more than 10000 µg/mL in “Dynamic solubility test” (SGF, 0.5 h, listed as crystaline form II-A of mesylate salt). The dynamic solubility in the data set “Dynamic solubility test” (SGF, 1 h, listed as crystaline form II-A of mesylate salt) is more than 10000 µg/mL; in the data set “Dynamic solubility test” (SGF, 2 h, listed as crystaline form II-A of mesylate salt) it was more than 10000 µg/mL; in the data set “Dynamic solubility test” (SGF, 4 h, listed as crystaline form II-A of mesylate salt), more than 10000 µg/mL; in “Dynamic solubility test” (SGF, 24 h, listed as crystaline form II-A of mesylate salt), more than 10000 µg/mL. The solubility in “Dynamic solubility test” (water, SGF, FaSSIF and FeSSIF, thermodynamic from solid, water, SGF, FaSSIF and FeSSIF, all time points, read-out: dynamic solubility in water, SGF, FaSSIF and FeSSIF (conclusion)) is more than 4000 µg/mL.
As to `C=CC(=O)Nc1cc(Nc2ncnc(-c3cn(C)c4ccccc34)n2)c(OC)cc1N(C)CCN(C)C` [Example 23], the dynamic solubility is 5300 µg/mL in “Dynamic solubility test” (FaSSIF, 0.5 h, listed as crystaline form III-A of hydrochloride salt); 5200 µg/mL in the data set “Dynamic solubility test” (FaSSIF, 1 h, listed as crystaline form III-A of hydrochloride salt); 5000 µg/mL in the data set “Dynamic solubility test” (FaSSIF, 2 h, listed as crystaline form III-A of hydrochloride salt); 5000 µg/mL in the data set “Dynamic solubility test” (FaSSIF, 4 h, listed as crystaline form III-A of hydrochloride salt); 8200 µg/mL in “Dynamic solubility test” (FaSSIF, 24 h, listed as crystaline form III-A of hydrochloride salt); more than 10000 µg/mL in the data set “Dynamic solubility test” (SGF, 0.5 h, listed as crystaline form III-A of hydrochloride salt). For the same molecule, the dynamic solubility in the data set “Dynamic solubility test” (SGF, 1 h, listed as crystaline form III-A of hydrochloride salt) is more than 10000 µg/mL; in “Dynamic solubility test” (SGF, 2 h, listed as crystaline form III-A of hydrochloride salt), more than 10000 µg/mL; in “Dynamic solubility test” (SGF, 4 h, listed as crystaline form III-A of hydrochloride salt), more than 10000 µg/mL; in “Dynamic solubility test” (SGF, 24 h, listed as crystaline form III-A of hydrochloride salt), more than 10000 µg/mL.
With `C=CC(=O)Nc1cc(Nc2ncnc(-c3cn(C)c4ccccc34)n2)c(OC)cc1N(C)CCN(C)C` [Example 24], the dynamic solubility in the data set “Dynamic solubility test” (FaSSIF, 0.5 h, listed as crystaline form IV-C of maleate salt) is 6100 µg/mL; in “Dynamic solubility test” (FaSSIF, 1 h, listed as crystaline form IV-C of maleate salt), 6200 µg/mL; in “Dynamic solubility test” (SGF, 0.5 h, listed as crystaline form IV-C of maleate salt) it was more than 10000 µg/mL; in “Dynamic solubility test” (SGF, 1 h, listed as crystaline form IV-C of maleate salt), more than 10000 µg/mL; in the data set “Dynamic solubility test” (SGF, 2 h, listed as crystaline form IV-C of maleate salt), more than 10000 µg/mL; in “Dynamic solubility test” (SGF, 4 h, listed as crystaline form IV-C of maleate salt), more than 10000 µg/mL. The dynamic solubility in the data set “Dynamic solubility test” (SGF, 24 h, listed as crystaline form IV-C of maleate salt) is more than 10000 µg/mL.

The values are drawn from patent US20240391902A1, “Crystalline Form of Compound” (Shenzhen Forward Pharmaceuticals Co., Limited, priority 2020, published 2024).
